Source: paper PMC12040169 (PLOS Biology, 2025)

Test: in vitro
Details: human, hela cells, % viability

Going from `O=C1NC2(CCc3ccccc31)CCN(C/C=C/c1cccnc1)C2` (stereo not drawn) [CBK284622] to `C[C@]12CN(Cc3cccs3)C[C@H]1C(=O)Nc1ccccc1C(=O)N2` [CBK284705], the viability at 28.5 h, 10 µM rises from 86.2% to 98.2%.

First: O=C(C1CCC1)N1CCC(c2nnc3n2CCCCC3)CC1 [CBK284625]
Second: CC(C)CC(=O)N1CCC(c2nnc3n2CCCCC3)CC1 [CBK284629]
The viability at 28.5 h, 10 µM of the first is higher: 103% for the first, 83.2% for the second.

Compared with `O=C(c1ccccc1F)N1CCC(c2nnc3n2CCCCC3)CC1` [CBK284628], `Nc1cc2cc(F)ccc2nc1C1CCN(C(=O)C2CC2)CC1` [CBK284657] is higher in viability at 28.5 h, 10 µM: 82.2% for the first, 93.4% for the second.

Compared with `O=C(NCc1nnc(-c2cccs2)o1)c1cccc(Cl)c1` [CBK284633], `O=C(Cc1ccccc1Cl)NCc1nnc(-c2cccs2)o1` [CBK284643] is higher in viability at 28.5 h, 10 µM: 95.6% for the first, 96.4% for the second.

Going from `O=C(NCc1nnc(-c2cccs2)o1)c1cccc(F)c1F` [CBK284634] to `O=C(NCc1nnc(-c2cccs2)o1)c1cccc2ccccc12` [CBK284636], the viability at 28.5 h, 10 µM falls from 91.1% to 82.1%.

First: O=C(NCc1nnc(-c2cccs2)o1)C1(c2ccccc2F)CC1 [CBK284637]
Second: O=C(NCc1nnc(-c2cccs2)o1)C1(c2cccc(F)c2)CC1 [CBK284639]
The viability at 28.5 h, 10 µM of the first is lower: 83.2% for the first, 90.2% for the second.

First: O=C(NCc1nnc(-c2cccs2)o1)C1(c2ccc(F)cc2)CC1 [CBK284638]
Second: Cc1ccc(-c2nnc(CNC(=O)C3(c4ccccc4)CC3)o2)s1 [CBK284642]
The viability at 28.5 h, 10 µM of the first is lower: 74.4% for the first, 95.9% for the second.

Going from `Cc1ccc(-c2nnc(CNC(=O)Cc3ccccc3F)o2)s1` [CBK284644] to `Cc1ccc(-c2nnc(CNC(=O)Cc3ccccc3Cl)o2)s1` [CBK284648], the viability at 28.5 h, 10 µM rises from 78.4% to 85.2%.

Compared with `Cc1ccc(-c2nnc(CNC(=O)Cc3ccc(F)cc3)o2)s1` [CBK284645], `O=c1[nH]cc(-c2ccc(F)cc2)cc1CNCc1ccc(F)cc1` [CBK284695] is higher in viability at 28.5 h, 10 µM: 91.3% for the first, 96.1% for the second.

Compared with `Nc1ccc([C@@H]2CN(Cc3ccccc3)C[C@]23CCCC(=O)N3)cc1` [CBK284649], `C[C@]12CN(Cc3ccccc3)C[C@H]1NC(=O)c1ccccc1C2=O` [CBK284703] is lower in viability at 28.5 h, 10 µM: 97.5% for the first, 96.5% for the second.

Going from `O=C(C1CC1)N1CC(n2nc(-c3cccs3)ccc2=O)C1` [CBK284650] to `COc1ccc2cnc(C3CCCN(C(=O)C4CC4)C3)cc2c1C` (stereo not drawn) [CBK284716], the viability at 28.5 h, 10 µM rises from 85.1% to 90.8%.

First: O=C(C1CC1)N1C2CCC1CC(O)(Cn1ccc3ccncc31)C2 (stereo not drawn) [CBK284652]
Second: CC1CC1C(=O)N1C2CCC1CC(O)(Cn1ccc3ccncc31)C2 (stereo not drawn) [CBK284653]
The viability at 28.5 h, 10 µM of the first is higher: 90.4% for the first, 85.6% for the second.

Going from `COC1CCCC(C(=O)NC(Cc2ccsc2)c2cccnc2)C1` (stereo not drawn) [CBK284654] to `O=C(Cn1cccn1)NC(Cc1ccsc1)c1nccs1` (stereo not drawn) [CBK284666], the viability at 28.5 h, 10 µM rises from 84.4% to 94%.

Compared with `CCCC(=O)N1CCC(c2nc3ccc(F)cc3cc2N)CC1` [CBK284655], `CC(C)(C)OC(=O)N1CCC(c2nc3ccc(F)cc3cc2N)CC1` [CBK284658] is lower in viability at 28.5 h, 10 µM: 92.1% for the first, 88.9% for the second.

Compared with `Cc1nccn1CC1(O)CCN(C(=O)C2(c3ccccc3)CC2)CC1` [CBK284659], `Cc1nccn1CC1(O)CCN(C(=O)CCc2ccccc2F)CC1` [CBK284689] is higher in viability at 28.5 h, 10 µM: 94.6% for the first, 96.6% for the second.

First: Cc1ccc(C(C)C(=O)N2CCC(O)(Cn3ccnc3C)CC2)cc1 (stereo not drawn) [CBK284660]
Second: OC1(Cn2cnc3ccccc32)CCN(Cc2ccccc2F)CC1 [CBK284662]
The viability at 28.5 h, 10 µM of the first is lower: 83.8% for the first, 85.3% for the second.

First: OC1(Cn2cnc3ccccc32)CCN(Cc2cccc(F)c2)CC1 [CBK284663]
Second: CN1C(=O)c2ccccc2C(=O)[C@@]2(C)CN(Cc3ccccc3)C[C@@H]12 [CBK284692]
The viability at 28.5 h, 10 µM of the first is lower: 94.9% for the first, 95.1% for the second.

First: CC(C)n1cc(C(=O)N2CCCC2c2nc3ccccc3[nH]2)cn1 (stereo not drawn) [CBK284667]
Second: CC(C)(C)OC(=O)N1CCCC(c2nc3ccccc3cc2N)C1 (stereo not drawn) [CBK284711]
The viability at 28.5 h, 10 µM of the first is higher: 108% for the first, 96.7% for the second.

First: Cc1cc(C2CCCCCN2S(=O)(=O)c2ccc(F)cc2)on1 (stereo not drawn) [CBK284668]
Second: CS(=O)(=O)N1CCCCCC1c1cc(-c2ccc(F)cc2)no1 (stereo not drawn) [CBK284669]
The viability at 28.5 h, 10 µM of the first is lower: 82.2% for the first, 91.8% for the second.

Compared with `CS(=O)(=O)N1CCCCCC1c1cc(-c2cccs2)on1` (stereo not drawn) [CBK284670], `Cn1cc(C2CCCCCN2S(=O)(=O)c2ccc(F)cc2)cn1` (stereo not drawn) [CBK284739] is higher in viability at 28.5 h, 10 µM: 85.5% for the first, 91.7% for the second.

First: CC(=O)Nc1ccc(C#CC2(NC(=O)C3CC3)CCCCC2)cn1 [CBK284676]
Second: O=C(NC1CCN(C(=O)CCn2ccc3ccncc32)CC1)C1CC1 [CBK284718]
The viability at 28.5 h, 10 µM of the first is higher: 87.4% for the first, 78.3% for the second.

Compared with `O=C(Cn1cccc2cc(C3CCNCC3)nc1-2)N1CCCCCC1` [CBK284679], `O=C(Cn1cccc2cc(C3CCNCC3)nc1-2)N1CCCC1` [CBK284680] is higher in viability at 28.5 h, 10 µM: 95.6% for the first, 98% for the second.

Going from `CCC(C)NC(=O)Cn1cccc2cc(C3CCNCC3)nc1-2` (stereo not drawn) [CBK284681] to `CC(C)NC(=O)Cn1ccc2ccnc(-c3cccs3)c21` [CBK284732], the viability at 28.5 h, 10 µM falls from 110% to 91.3%.

Compared with `Cc1cnc2[nH]c(C3CCN(C(=O)c4cnn(C)c4C)CC3)cc2c1` [CBK284684], `CCn1ncc(CN2CCCC(c3cc4cccnc4[nH]3)C2)c1C` (stereo not drawn) [CBK284700] is higher in viability at 28.5 h, 10 µM: 88.8% for the first, 96.9% for the second.

Compared with `Cc1cc(C(F)(F)F)n2nc(C3CCCN3C(=O)C(C)C)cc2n1` (stereo not drawn) [CBK284685], `Cc1cc2n(n1)[C@@H](C(F)F)C[C@@H](C1CCCN(C(=O)C(C)C)C1)N2` (stereo partly drawn) [CBK284722] is higher in viability at 28.5 h, 10 µM: 93% for the first, 96.1% for the second.

First: CC1CCCN(Cc2c(C3CCOCC3)[nH]c3ncccc23)C1 (stereo not drawn) [CBK284687]
Second: CCn1cc(CN2CCCC(c3cc4cccnc4[nH]3)C2)c(C)n1 (stereo not drawn) [CBK284701]
The viability at 28.5 h, 10 µM of the first is higher: 97% for the first, 89.2% for the second.

First: Cn1cnc2cc(NCc3cc(-c4ccc(F)cc4)c[nH]c3=O)ccc21 [CBK284693]
Second: O=c1[nH]cc(-c2ccc(F)cc2)cc1CNCc1cccc(F)c1 [CBK284697]
The viability at 28.5 h, 10 µM of the first is lower: 50.7% for the first, 94.6% for the second.

Compared with `C[C@]12CN(Cc3cccs3)C[C@H]1NC(=O)c1ccccc1C2=O` [CBK284702], `COC(=O)C1(Cc2ccccc2-c2ccncc2)CCOCC1` [CBK284709] is higher in viability at 28.5 h, 10 µM: 89.2% for the first, 95.2% for the second.

Compared with `O=C(Cn1c(=O)n(Cc2ccco2)c2ncccc21)N1CCCC1` [CBK284708], `O=C(Cn1nc(-c2cc3c(s2)CCC3)oc1=O)N1CCCC1` [CBK284712] is higher in viability at 28.5 h, 10 µM: 88.9% for the first, 90.3% for the second.

Going from `CN(C)C(=O)Cn1nc(-c2cc3c(s2)CCC3)oc1=O` [CBK284715] to `O=C(Cn1ccc2ccnc(-c3cccs3)c21)N1CCOCC1` [CBK284729], the viability at 28.5 h, 10 µM falls from 99% to 94.2%.

Going from `CCOC(=O)C1CCN(C(=O)CCn2ccc3ccncc32)CC1` [CBK284720] to `CC(C)C(=O)NC1CCN(C(=O)CCn2ccc3ccncc32)CC1` [CBK284730], the viability at 28.5 h, 10 µM rises from 84.2% to 98%.

First: CCCC(=O)N1CCCC([C@@H]2C[C@H](C(F)F)n3nc(C)cc3N2)C1 (stereo partly drawn) [CBK284721]
Second: Cc1cc2n(n1)[C@@H](C(F)F)C[C@@H](C1CCCN(C(=O)C3CC3)C1)N2 (stereo partly drawn) [CBK284723]
The viability at 28.5 h, 10 µM of the first is lower: 93.2% for the first, 98.7% for the second.

First: O=C(Cn1ccc2ccnc(-c3cccs3)c21)N1CCNCC1 [CBK284733]
Second: O=C(Cn1ccc2ccnc(-c3cccs3)c21)NCc1ccccn1 [CBK284735]
The viability at 28.5 h, 10 µM of the first is lower: 90.9% for the first, 95.9% for the second.
